Assay results as given in the NIST ThermoML archive (doi:10.1021/je800908h).

Assay: mn = molality of the nth substance listed, in mol/kg
Details: 101 kPa, Liquid, Linear variable-path acoustic interferometer

CCCC[N+](CCCC)(CCCC)CCCC.[Br-] [tetrabutylammonium bromide] + O
speed of sound [m/s]
Details | 283.15 K | 298.15 K | 318.15 K | 338.15 K
m1 = 0.05 | 1463 | 1508.4 | 1544.6 | 1558.6
m1 = 0.075 | 1470.4 | 1514.2 | 1548.4 | 1561.2
m1 = 0.1 | 1477.8 | 1520.2 | 1552.9 | 1564.2
m1 = 0.2 | 1506.2 | 1541.4 | 1567.4 | 1573.6
m1 = 0.3 | 1532.5 | 1561 | 1580.7 | 1582.4
m1 = 0.5 | 1579 | 1596.3 | 1604.7 | 1597
m1 = 0.75 | 1628.2 | 1632.7 | 1627.3 | 1610.3
m1 = 1 | 1667.1 | 1661.2 | 1644.1 | 1619.5
m1 = 1.5 | 1718.2 | 1697.4 | 1663.3 | 1626.6
m1 = 2 | 1743.4 | 1713.7 | 1669.5 | 1625
m1 = 2.5 | 1752.2 | 1718 | 1668.5 | 1619.5
m1 = 3 | 1753.9 | 1717.6 | 1668.3 | 1615.4

C[N+](C)(C)C.[Br-] [tetramethylammonium bromide] + O
speed of sound [m/s]
Details | 283.15 K | 298.15 K | 318.15 K | 338.15 K
m1 = 0.05 | 1451 | 1499.7 | 1538.7 | 1555.6
m1 = 0.075 | 1452.9 | 1500.3 | 1540 | 1556.2
m1 = 0.1 | 1455 | 1502.5 | 1541.1 | 1556.9
m1 = 0.2 | 1462.1 | 1508.1 | 1545.8 | 1560.9
m1 = 0.3 | 1469.5 | 1513.7 | 1550.4 | 1564.6
m1 = 0.5 | 1483.1 | 1524.7 | 1559.3 | 1571
m1 = 0.75 | 1499.8 | 1537.9 | 1569.3 | 1579.2
m1 = 1 | 1515.7 | 1550.8 | 1578.6 | 1587.3
m1 = 1.5 | 1544.7 | 1575.1 | 1596.6 | 1602
m1 = 2 | 1571.1 | 1597.2 | 1613.1 | 1615.7
m1 = 2.5 | 1595.4 | 1617 | 1628.8 | 1628.9
m1 = 3 | 1617.4 | 1633.7 | 1644.7 | 1641.3

[2H]O[2H] [water-d2] + CCCC[N+](CCCC)(CCCC)CCCC.[Br-]
speed of sound [m/s]
Details | 283.15 K | 298.15 K | 318.15 K | 338.15 K
m2 = 0.05 | 1366.8 | 1414 | 1451.5 | –
m2 = 0.075 | 1375.9 | 1421.1 | 1456.5 | 1470.5
m2 = 0.1 | 1384.4 | – | 1461.4 | 1474.3
m2 = 0.2 | 1419.1 | 1453.9 | 1479.9 | 1486.6
m2 = 0.3 | 1450.2 | 1478.2 | – | 1498.1
m2 = 0.5 | 1506 | – | 1525.8 | 1518.2
m2 = 0.75 | 1562.5 | 1562.4 | 1554.8 | 1536.6
m2 = 1 | 1605.4 | 1594.2 | 1576.2 | 1550.2
m2 = 1.5 | 1658.6 | 1634.9 | 1601 | 1563.5
m2 = 2 | 1680.5 | 1652.1 | 1610 | 1566.4
m2 = 2.5 | 1686.3 | 1657 | 1611.3 | 1563.7
m2 = 3 | 1688.9 | 1661.4 | 1615.2 | 1564

[2H]O[2H] [water-d2] + C[N+](C)(C)C.[Br-]
speed of sound [m/s]
Details | 283.15 K | 298.15 K | 318.15 K | 338.15 K
m2 = 0.05 | 1352 | 1403 | 1443.9 | 1462.3
m2 = 0.075 | 1354.7 | 1405.2 | 1445.4 | 1463.6
m2 = 0.1 | 1357.5 | 1407.4 | 1447.1 | 1465.1
m2 = 0.2 | 1366.7 | 1414.7 | 1452.9 | 1469.8
m2 = 0.3 | 1376.5 | 1422.2 | 1458.6 | 1474.5
m2 = 0.5 | 1393.7 | 1436.4 | 1469.8 | 1484.1
m2 = 0.75 | 1414.4 | 1453.8 | 1483.7 | 1495.7
m2 = 1 | 1433.4 | 1470.2 | – | 1506.9
m2 = 1.5 | 1469.8 | 1500.5 | 1521.2 | 1527.4
m2 = 2 | 1502.4 | 1528 | 1543.6 | 1546.4
m2 = 2.5 | 1532.1 | 1552.9 | 1564.3 | 1564.2
m2 = 3 | 1560.4 | 1575.5 | 1583.5 | 1580.8
